Laboratory results reported in patent US11713315B2, “5 to 7 membered heterocyclic amides as JAK inhibitors” (priority 2018, dated 2023).

Assay: Lung S9 metabolism
Assay type: in vitro ADME
Details: human lung S9; qualitative observation of O-sulfate metabolite peak
Experimental: Lung S9 fractions from human (lot 1410245) were purchased from XenoTech LLC (Lenexa, Kans.). NADPH (Sigma Aldrich, N1630) and 3-phosphoadenosine 5-phosphosulfate (PAPS) (Sigma Aldrich, A1651) were purchased from Sigma Aldrich (St. Louis, Mo.). Acetonitrile and water were obtained from VWR (Radnor, Pa.) and were of HPLC grade or better. Raloxifene and formic acid was purchased from Sigma Aldrich (St. Louis, Mo.). Lung S9 incubations were performed in a water bath at 37° C. in a 96-well polypropylene plate. […] All samples were centrifuged at 2250 g for 10 minutes at 5° C. Supernatant […] was taken from the centrifuged samples and diluted into 1004 HPLC water containing internal standard. […] Mobile Phase A consisted of Water+0.2% formic acid and Mobile Phase B consisted of acetonitrile+0.2% formic acid. Peak integration was accomplished using Gubbs GMSU software (Gubbs Inc., Alpharetta, Ga.). For each sample, peak area ratios were calculated by dividing the analyte peak area by the internal standard peak area. […] Determination of sulfate metabolite formation was made qualitatively by observation of early-eluting peak in the parent ion channel which, based on historical internal data, corresponded to the 0-sulfate metabolite of each parent compound.

Sulfate Appearance, Yes:
CCCN1Cc2[nH]c(-c3n[nH]c4cc(-c5ccc(O)cc5CC)ccc34)nc2C[C@H]1C(=O)N1CCN(CCO)CC1 [Compound 1, (S)-(2-(6-(2-ethyl-4-hydroxyphenyl)-1H-indazol-3-yl)-5-propyl-4,5,6,7-tetrahydro-3H-imidazo[4,5-c]pyridin-6-yl)(4-(2-hydroxyethyl)piperazin-1-yl)methanone]
CCCN1Cc2[nH]c(-c3n[nH]c4cc(-c5ccc(O)cc5CC)ccc34)nc2C[C@H]1C(=O)N1C[C@@H]2C[C@H]1CN2C [Compound 2, ((S)-2-(6-(2-ethyl-4-hydroxyphenyl)-1H-indazol-3-yl)-5-propyl-4,5,6,7-tetrahydro-3H-imidazo[4,5-c]pyridin-6-yl)((1S,4S)-5-methyl-2,5-diazabicyclo[2.2.1]heptan-2-yl)methanone]
CCc1cc(O)ccc1-c1ccc2c(-c3nc4c([nH]3)CN(C)[C@H](C(=O)N3CCN(C)C[C@@H]3C)C4)n[nH]c2c1 [Compound 3, ((S)-2,4-dimethylpiperazin-1-yl)((S)-2-(6-(2-ethyl-4-hydroxyphenyl)-1H-indazol-3-yl)-5-methyl-4,5,6,7-tetrahydro-3H-imidazo[4,5-c]pyridin-6-yl)methanone]
CCc1cc(O)ccc1-c1ccc2c(-c3nc4c([nH]3)CN(C(C)C)[C@H](C(=O)N3CCCN(C)CC3)C4)n[nH]c2c1 [Compound 4, (S)-(2-(6-(2-ethyl-4-hydroxyphenyl)-1H-indazol-3-yl)-5-isopropyl-4,5,6,7-tetrahydro-3H-imidazo[4,5-c]pyridin-6-yl)(4-methyl-1,4-diazepan-1-yl)methanone]
CCc1cc(O)ccc1-c1ccc2c(-c3nc4c([nH]3)CN(C)[C@H](C(=O)N3CCN(CCO)C[C@H]3C)C4)n[nH]c2c1 [Compound 5, ((S)-2-(6-(2-ethyl-4-hydroxyphenyl)-1H-indazol-3-yl)-5-methyl-4,5,6,7-tetrahydro-3H-imidazo[4,5-c]pyridin-6-yl)((R)-4-(2-hydroxyethyl)-2-methylpiperazin-1-yl)methanone]
CCc1cc(O)ccc1-c1ccc2c(-c3nc4c([nH]3)CN(C(C)C)[C@H](C(=O)N3CC[C@H](N(C)C)C3)C4)n[nH]c2c1 [Compound 6, ((S)-3-(dimethylamino)pyrrolidin-1-yl)((S)-2-(6-(2-ethyl-4-hydroxyphenyl)-1H-indazol-3-yl)-5-isopropyl-4,5,6,7-tetrahydro-3H-imidazo[4,5-c]pyridin-6-yl)methanone]
CCCN1Cc2[nH]c(-c3n[nH]c4cc(-c5cc(F)c(O)cc5CC)ccc34)nc2C[C@H]1C(=O)N1CCN(CCO)CC1 [Compound C-1, (S)-(2-(6-(2-ethyl-5-fluoro-4-hydroxyphenyl)-1H-indazol-3-yl)-5-propyl-4,5,6,7-tetrahydro-3H-imidazo[4,5-c]pyridin-6-yl)(4-(2-hydroxyethyl)piperazin-1-yl)methanone]
CCCN1Cc2[nH]c(-c3n[nH]c4cc(-c5cc(F)c(O)cc5CC)ccc34)nc2C[C@H]1C(=O)N1C[C@@H]2C[C@H]1CN2C [Compound C-2]
CCc1cc(O)c(F)cc1-c1ccc2c(-c3nc4c([nH]3)CN(C)[C@H](C(=O)N3CCN(C)C[C@@H]3C)C4)n[nH]c2c1 [Compound C-3, ((S)-2,4-dimethylpiperazin-1-yl)((S)-2-(6-(2-ethyl-5-fluoro-4-hydroxyphenyl)-1H-indazol-3-yl)-5-methyl-4,5,6,7-tetrahydro-3H-imidazo[4,5-c]pyridin-6-yl)methanone]
CCc1cc(O)c(F)cc1-c1ccc2c(-c3nc4c([nH]3)CN(C(C)C)[C@H](C(=O)N3CCCN(C)CC3)C4)n[nH]c2c1 [Compound C-4, (S)-(2-(6-(2-ethyl-5-fluoro-4-hydroxyphenyl)-1H-indazol-3-yl)-5-isopropyl-4,5,6,7-tetrahydro-3H-imidazo[4,5-c]pyridin-6-yl)(4-methyl-1,4-diazepan-1-yl)methanone]
CCc1cc(O)c(F)cc1-c1ccc2c(-c3nc4c([nH]3)CN(C)[C@H](C(=O)N3CCN(CCO)C[C@H]3C)C4)n[nH]c2c1 [Compound C-5, ((S)-2-(6-(2-ethyl-5-fluoro-4-hydroxyphenyl)-1H-indazol-3-yl)-5-methyl-4,5,6,7-tetrahydro-3H-imidazo[4,5-c]pyridin-6-yl)((R)-4-(2-hydroxyethyl)-2-methyl-piperazin-1-yl)methanone]
CCc1cc(O)c(F)cc1-c1ccc2c(-c3nc4c([nH]3)CN(C(C)C)[C@H](C(=O)N3CC[C@H](N(C)C)C3)C4)n[nH]c2c1 [Compound C-6]
